# Reference: patent US20220370496A1, “HER3 PULSED DC1 THERAPY” (H. LEE MOFFITT CANCER CENTER AND RESEARCH INSTITUTE, INC., priority 2019, published 2022)
# System: MT901
# Assay: Intratumoral HER3-DC1 in combination with Taxol
# Format: in vivo, mouse
# Conditions: 30 days after tumor cells were transferred
# Protocol: Taxol alone group received two injections of taxol. DC alone group received DCs once weekly beginning on day 5. DC+Taxol group received two injections of taxol before beginning DC treatment.
# MT901, a mouse TNBC cell line, was injected in Balb/c mice and treatment began once tumors were palpable. HER3-DC1 vaccine was injected intratumorally once a week for six weeks. HER3 immune responses were measured in spleens, lymph nodes, and tumors post-vaccination. […] To investigate how the peptides would perform in the context of a therapeutic treatment of an established cancer, 5×10^5 MT901 cells were delivered to a Balb/c mouse s.c. and 5 days later weekly administration of 1×10^6 HER3 pulsed DC cells began and continued for six weeks (FIG. 8). […] To determine if the therapeutic or preventive effect could be improved in combination with an anti-cancer agent, mice were administered HER3-pulsed DC1 in combination with Taxol.
structure (smiles),measurement,value
"CC(=O)O[C@H]1C(=O)[C@@]2(C)[C@H]([C@H](OC(=O)c3ccccc3)[C@]3(O)C[C@H](OC(=O)[C@H](O)[C@@H](NC(=O)c4ccccc4)c4ccccc4)C(C)=C1C3(C)C)[C@]1(OC(C)=O)CO[C@@H]1C[C@@H]2O [taxol, Paclitaxel]",established tumors,had established tumors
